Columns and labels:
[1] = biological target: Calcium/calmodulin-dependent protein kinase type II subunit beta (Homo sapiens) (UniProt Q13554); experiment: Inhibition of CAMK2B (unknown origin) assessed as residual activity at 100 nM by KINOMEscan analysis relative to control
[2] = biological target: Fibroblast growth factor receptor 1 (Homo sapiens) (UniProt P11362); experiment: Inhibition of FGFR1 (unknown origin) assessed as residual activity at 100 nM by KINOMEscan analysis relative to control
Fibroblast growth factor receptor 1 (Homo sapiens), sequence (P11362 22-822 limits assumed): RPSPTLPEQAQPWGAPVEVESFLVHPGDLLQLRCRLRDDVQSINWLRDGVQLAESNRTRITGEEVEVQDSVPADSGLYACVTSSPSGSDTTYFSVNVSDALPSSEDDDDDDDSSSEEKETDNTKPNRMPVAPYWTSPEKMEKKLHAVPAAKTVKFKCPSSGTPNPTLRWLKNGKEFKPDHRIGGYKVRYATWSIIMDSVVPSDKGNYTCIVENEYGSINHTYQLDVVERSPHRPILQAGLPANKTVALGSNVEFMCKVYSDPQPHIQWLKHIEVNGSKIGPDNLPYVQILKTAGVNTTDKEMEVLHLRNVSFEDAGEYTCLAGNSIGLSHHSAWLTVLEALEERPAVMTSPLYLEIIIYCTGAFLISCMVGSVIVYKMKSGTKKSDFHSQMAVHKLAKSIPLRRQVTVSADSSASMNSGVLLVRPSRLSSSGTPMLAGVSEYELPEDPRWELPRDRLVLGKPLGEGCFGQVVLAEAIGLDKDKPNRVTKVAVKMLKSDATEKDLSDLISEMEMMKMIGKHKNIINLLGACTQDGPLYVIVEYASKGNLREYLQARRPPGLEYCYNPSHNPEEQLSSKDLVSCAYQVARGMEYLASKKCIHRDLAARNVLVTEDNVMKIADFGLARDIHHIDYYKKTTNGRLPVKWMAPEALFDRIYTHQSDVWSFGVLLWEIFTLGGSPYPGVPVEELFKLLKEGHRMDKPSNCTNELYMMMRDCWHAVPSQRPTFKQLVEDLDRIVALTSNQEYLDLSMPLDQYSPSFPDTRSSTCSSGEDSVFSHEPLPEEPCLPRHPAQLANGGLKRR

[3] = biological target: Calcium-dependent protein kinase 1 (Plasmodium falciparum) (UniProt P62344); experiment: Inhibition of Plasmodium falciparum CDPK1 assessed as residual activity at 100 nM by KINOMEscan analysis relative to control
Calcium-dependent protein kinase 1 (Plasmodium falciparum), sequence (P62344 2-524 limits assumed): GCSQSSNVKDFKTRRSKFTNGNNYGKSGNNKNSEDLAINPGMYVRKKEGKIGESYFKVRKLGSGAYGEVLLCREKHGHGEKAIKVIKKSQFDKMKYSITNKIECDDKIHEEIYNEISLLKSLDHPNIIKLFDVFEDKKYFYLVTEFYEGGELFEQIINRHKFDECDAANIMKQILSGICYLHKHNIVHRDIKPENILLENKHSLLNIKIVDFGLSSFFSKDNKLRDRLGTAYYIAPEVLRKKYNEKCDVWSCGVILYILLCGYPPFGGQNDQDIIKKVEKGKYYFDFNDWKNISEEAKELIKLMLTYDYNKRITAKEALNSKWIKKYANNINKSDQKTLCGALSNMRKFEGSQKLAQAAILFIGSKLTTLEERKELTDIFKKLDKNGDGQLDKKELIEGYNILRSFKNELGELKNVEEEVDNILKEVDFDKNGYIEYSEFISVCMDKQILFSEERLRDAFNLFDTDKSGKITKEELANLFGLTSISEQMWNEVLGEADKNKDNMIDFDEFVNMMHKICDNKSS

[4] = biological target: T1, Serine/threonine-protein kinase D3 (Homo sapiens) (UniProt O94806); experiment: Inhibition of PRKD3 (unknown origin) assessed as residual activity at 100 nM by KINOMEscan analysis relative to control
T1 sequence (whole entry): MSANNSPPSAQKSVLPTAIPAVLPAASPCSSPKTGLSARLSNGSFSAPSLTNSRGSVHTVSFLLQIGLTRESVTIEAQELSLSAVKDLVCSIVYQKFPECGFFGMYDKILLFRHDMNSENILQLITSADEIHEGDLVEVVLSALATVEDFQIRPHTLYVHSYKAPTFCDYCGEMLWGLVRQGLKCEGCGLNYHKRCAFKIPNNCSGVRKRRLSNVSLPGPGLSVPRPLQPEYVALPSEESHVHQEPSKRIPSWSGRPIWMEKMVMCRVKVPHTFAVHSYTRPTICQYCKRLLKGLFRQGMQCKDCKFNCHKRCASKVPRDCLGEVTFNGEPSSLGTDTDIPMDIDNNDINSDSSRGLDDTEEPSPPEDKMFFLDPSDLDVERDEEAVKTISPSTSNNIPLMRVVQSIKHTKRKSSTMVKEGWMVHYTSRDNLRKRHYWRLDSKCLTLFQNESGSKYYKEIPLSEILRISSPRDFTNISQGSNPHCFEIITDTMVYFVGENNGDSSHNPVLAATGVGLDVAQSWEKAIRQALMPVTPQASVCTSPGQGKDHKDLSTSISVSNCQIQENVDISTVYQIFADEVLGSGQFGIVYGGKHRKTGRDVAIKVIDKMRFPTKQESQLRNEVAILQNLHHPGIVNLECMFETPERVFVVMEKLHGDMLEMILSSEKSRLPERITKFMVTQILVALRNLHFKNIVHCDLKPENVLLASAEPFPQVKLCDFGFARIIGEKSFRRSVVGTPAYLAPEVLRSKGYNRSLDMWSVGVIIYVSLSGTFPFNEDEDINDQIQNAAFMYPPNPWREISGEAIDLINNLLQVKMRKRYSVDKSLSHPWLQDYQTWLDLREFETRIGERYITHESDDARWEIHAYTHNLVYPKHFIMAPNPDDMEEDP

[5] = biological target: T2, cGMP-dependent protein kinase 2 (Homo sapiens) (UniProt Q13237); experiment: Inhibition of PRKG2 (unknown origin) assessed as residual activity at 100 nM by KINOMEscan analysis relative to control
T2 sequence (whole entry): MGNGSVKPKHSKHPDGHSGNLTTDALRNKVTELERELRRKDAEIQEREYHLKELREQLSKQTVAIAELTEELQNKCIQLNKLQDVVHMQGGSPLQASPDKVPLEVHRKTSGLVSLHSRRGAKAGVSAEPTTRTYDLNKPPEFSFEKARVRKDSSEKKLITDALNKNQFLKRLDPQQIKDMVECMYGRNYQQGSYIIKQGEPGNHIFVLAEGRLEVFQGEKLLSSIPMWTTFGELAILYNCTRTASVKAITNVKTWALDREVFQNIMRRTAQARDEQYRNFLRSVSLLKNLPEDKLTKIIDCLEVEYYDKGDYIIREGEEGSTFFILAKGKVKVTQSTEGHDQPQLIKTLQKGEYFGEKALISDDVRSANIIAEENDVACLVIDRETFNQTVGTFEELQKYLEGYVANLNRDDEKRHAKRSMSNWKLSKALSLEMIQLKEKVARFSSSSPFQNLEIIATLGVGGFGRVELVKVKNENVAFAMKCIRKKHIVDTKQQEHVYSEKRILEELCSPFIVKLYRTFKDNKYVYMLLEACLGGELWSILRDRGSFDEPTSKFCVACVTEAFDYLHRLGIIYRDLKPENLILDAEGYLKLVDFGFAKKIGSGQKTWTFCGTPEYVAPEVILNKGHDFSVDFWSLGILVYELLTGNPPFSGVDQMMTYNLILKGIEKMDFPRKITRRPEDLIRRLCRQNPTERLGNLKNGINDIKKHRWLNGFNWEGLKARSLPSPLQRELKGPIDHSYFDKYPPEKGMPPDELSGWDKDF

[6] = biological target: Serine/threonine-protein kinase SBK1 (Homo sapiens) (UniProt Q52WX2); experiment: Inhibition of SBK1 (unknown origin) assessed as residual activity at 100 nM by KINOMEscan analysis relative to control
Serine/threonine-protein kinase SBK1 (Homo sapiens), sequence (Q52WX2 whole entry): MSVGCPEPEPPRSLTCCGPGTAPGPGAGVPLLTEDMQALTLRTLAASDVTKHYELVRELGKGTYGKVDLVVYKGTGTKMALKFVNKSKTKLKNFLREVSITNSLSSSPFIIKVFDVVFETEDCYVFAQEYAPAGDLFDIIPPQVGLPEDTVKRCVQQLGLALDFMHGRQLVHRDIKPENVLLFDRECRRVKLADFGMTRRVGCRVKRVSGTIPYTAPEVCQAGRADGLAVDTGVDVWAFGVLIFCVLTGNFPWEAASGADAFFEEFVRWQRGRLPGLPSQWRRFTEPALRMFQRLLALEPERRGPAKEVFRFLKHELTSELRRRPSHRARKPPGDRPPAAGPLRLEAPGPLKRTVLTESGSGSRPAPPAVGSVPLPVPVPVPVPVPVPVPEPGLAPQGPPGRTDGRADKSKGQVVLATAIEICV

[7] = biological target: T3, Serine/threonine-protein kinase Sgk2 (Homo sapiens) (UniProt Q9HBY8); experiment: Inhibition of SGK2 (unknown origin) assessed as residual activity at 100 nM by KINOMEscan analysis relative to control
T3 sequence (whole entry): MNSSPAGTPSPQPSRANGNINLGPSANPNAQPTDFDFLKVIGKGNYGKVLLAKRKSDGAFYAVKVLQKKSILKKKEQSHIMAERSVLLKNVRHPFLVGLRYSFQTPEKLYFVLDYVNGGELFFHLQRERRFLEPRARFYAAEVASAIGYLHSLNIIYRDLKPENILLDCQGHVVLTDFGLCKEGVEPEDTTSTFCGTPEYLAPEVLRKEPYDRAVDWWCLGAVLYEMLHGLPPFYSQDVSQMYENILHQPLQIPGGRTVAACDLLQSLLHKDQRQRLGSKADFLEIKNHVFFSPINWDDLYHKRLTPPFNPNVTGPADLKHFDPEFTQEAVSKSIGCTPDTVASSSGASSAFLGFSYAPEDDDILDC

[8] = biological target: SRSF protein kinase 1 (Homo sapiens) (UniProt Q96SB4); experiment: Inhibition of SRPK1 (unknown origin) assessed as residual activity at 100 nM by KINOMEscan analysis relative to control
SRSF protein kinase 1 (Homo sapiens), sequence (Q96SB4 whole entry): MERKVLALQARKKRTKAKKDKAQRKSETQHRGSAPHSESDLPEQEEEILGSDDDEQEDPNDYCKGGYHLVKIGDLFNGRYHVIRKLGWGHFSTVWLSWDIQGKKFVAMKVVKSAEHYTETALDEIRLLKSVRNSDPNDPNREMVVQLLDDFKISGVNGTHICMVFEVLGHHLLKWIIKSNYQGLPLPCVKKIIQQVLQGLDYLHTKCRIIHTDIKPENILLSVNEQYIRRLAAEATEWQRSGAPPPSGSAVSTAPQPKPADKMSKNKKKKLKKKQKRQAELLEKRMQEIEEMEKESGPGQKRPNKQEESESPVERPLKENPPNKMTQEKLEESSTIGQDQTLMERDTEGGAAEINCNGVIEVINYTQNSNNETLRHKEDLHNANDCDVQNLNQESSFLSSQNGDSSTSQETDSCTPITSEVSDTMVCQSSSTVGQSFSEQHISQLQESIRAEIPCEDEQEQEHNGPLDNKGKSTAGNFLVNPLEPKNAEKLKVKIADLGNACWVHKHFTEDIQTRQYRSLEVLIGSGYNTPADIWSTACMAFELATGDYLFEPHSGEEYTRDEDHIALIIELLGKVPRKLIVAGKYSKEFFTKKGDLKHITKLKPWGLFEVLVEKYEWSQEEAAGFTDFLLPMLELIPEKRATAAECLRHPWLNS

Calcium/calmodulin-dependent protein kinase type II subunit beta (Homo sapiens), sequence (Q13554 whole entry): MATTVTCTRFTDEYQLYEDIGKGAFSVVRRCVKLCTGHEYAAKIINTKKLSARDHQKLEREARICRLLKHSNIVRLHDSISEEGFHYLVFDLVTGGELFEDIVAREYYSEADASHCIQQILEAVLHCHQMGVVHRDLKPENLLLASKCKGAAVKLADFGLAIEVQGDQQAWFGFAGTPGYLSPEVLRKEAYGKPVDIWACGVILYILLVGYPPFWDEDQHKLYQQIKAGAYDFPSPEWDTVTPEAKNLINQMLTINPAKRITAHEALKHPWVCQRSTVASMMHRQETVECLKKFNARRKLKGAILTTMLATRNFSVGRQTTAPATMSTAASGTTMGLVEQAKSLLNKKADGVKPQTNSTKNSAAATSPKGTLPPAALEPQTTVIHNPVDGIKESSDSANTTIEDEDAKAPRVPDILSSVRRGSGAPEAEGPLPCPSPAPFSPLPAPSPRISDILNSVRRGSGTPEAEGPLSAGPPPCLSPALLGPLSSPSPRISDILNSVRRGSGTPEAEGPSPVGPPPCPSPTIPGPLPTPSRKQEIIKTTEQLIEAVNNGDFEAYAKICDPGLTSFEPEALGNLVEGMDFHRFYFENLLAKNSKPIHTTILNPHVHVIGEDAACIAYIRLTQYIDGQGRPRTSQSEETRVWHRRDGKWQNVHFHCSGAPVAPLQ

What does the source list for `COc1cc2ncnc(N[C@H](C)c3cccc4ccccc34)c2cc1OC`?
Activity [1]: 100%; Activity [2]: 100%; Activity [3]: 84%; Activity [4]: 100%; Activity [5]: 70%; Activity [6]: 81%; Activity [7]: 97%; Activity [8]: 95%
